Laboratory results from article PMC3366986, “On the Mechanism of Action of SJ-172550 in Inhibiting the Interaction of MDM4 and p53” (PLoS ONE, 2012).
Values after ≈ are worked out from the molar mass of the structure shown.

How the values were obtained:
MDMX (23–111) = target: T1, MDMX (23–111) (Homo sapiens, UniProt O15151); assay: thermal stability of MDMX by hydrophobic dye binding (thermal shift); conditions: for effect of reducing agent used alone on thermal stability of MDMX: without compound 1
T1 construct: Thermal shift data for MDMX (23–111) showing a 7 degree stabilization; made in house; host or cells: E. coli BL21(DE3)
T1 sequence (O15151 23-111): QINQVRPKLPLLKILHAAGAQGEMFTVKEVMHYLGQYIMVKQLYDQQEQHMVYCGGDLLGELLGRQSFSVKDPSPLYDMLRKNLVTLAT
Experimental: The ITD measurements were performed with a RT-PCR instrument (Applied Biosystems 7900HT) equipped with a 384-well probe using SYBR detection (excitation 495/emission 537). The program used started at 45°C and the temperature increased at a rate of 1 degree per minute. […] The final volume was 20 µl for each well using 384 ABI PRISM™ plates (Applied Biosystems). The data was exported and evaluated using a custom data processing algorithm coded in Pipeline Pilot (Scitegic). Apparent melting temperatures were calculated by measuring the temperature at which the observed fluorescence signal was halfway between the baseline and the maximum. Binding curves were determined by graphing observed apparent melting temperature as a function of test compound concentrations. These curves were then fit to a four parameter sigmoidal dose response model using PRISM 5.0 (GraphPad Software, Inc.).

[1] = target: T2, hMDMX (GST-tagged, a.a. 1–185) (Homo sapiens, UniProt O15151); assay: fluorescence polarization competition assay, MDMX-p53 peptide binding; conditions: for IC50: Figure 3, read-out: IC50, inhibition of MDMX-p53 peptide binding
T2 construct: hMDMX (GST-tagged, a.a. 1–185); made in house; host or cells: E. coli BL21(DE3)
T2 sequence (O15151 1-185): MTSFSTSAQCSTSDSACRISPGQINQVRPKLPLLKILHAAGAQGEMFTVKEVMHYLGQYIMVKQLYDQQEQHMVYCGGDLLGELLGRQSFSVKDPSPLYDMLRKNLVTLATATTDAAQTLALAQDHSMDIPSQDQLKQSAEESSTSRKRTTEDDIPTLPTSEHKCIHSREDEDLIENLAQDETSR
Experimental: All fluorescence polarization assays were performed in binding buffer (10 mM Tris, pH 8.0, 170 mM NaCl, 0.05% Tween-20) unless otherwise noted. For competition assays a master mix of 15 nM Texas red-labeled (N-terminal label) P53 Peptide (sequence: […]) with 1 µM hMDMX (GST-tagged, a.a. 1–185) was prepared and 20 µl was added to black polystyrene 384 well plates (Corning #3573). DMSO stock solutions of test compounds were then added by pin transfer (V&P scientific) in nano-liter volumes (maximum final DMSO percentage = 1%). The assay mixture was incubated at room temperature for one hour and read on an EnVision multi-label plate reader using a 555 nm excitation filter, a 632 nm emission filter, and a Texas Red FP dichroic mirror. Binding inhibition curves and IC50 values were determined by fitting observed mP values to a 4-parameter sigmoidal binding curve using PRISM 5.0 (GraphPad Software, Inc.).

hMDMX (aa 23–111) = target: T3, hMDMX (aa 23–111) (Homo sapiens, UniProt O15151); assay: SPR binding of compound 1 to immobilized hMDMX; conditions: 100 µM
T3 construct: hMDMX (23–111) was immobilized to the SPR chips using a biotin tag; made in house
T3 sequence (O15151 23-111): T1 sequence (O15151 23-111)
Experimental: Binding studies were performed at 25°C using a Biacore T100 (GE Healthcare) surface plasmon resonance (SPR) instrument. Either streptavidin or NeutrAvidin (Thermo Scientific) was immobilized on a carboxymethyldextran-coated gold surface (CM5 chip; GE Healthcare) by standard amine coupling methods. The carboxymethyl groups of dextran were activated with N-ethyl-N ´-(3-dimethylaminopropyl) carbodiimide (EDC) and N-hydroxysuccinimide (NHS). For peptide experiments, streptavidin was attached at pH 4.5 in 10 mM sodium acetate to levels of ∼3000 RU per flow cell. For small molecule experiments, NeutrAvidin was attached at pH 5.0 in 10 mM sodium acetate to levels of ∼11000–12000 RU per flow cell. Any remaining reactive sites were blocked by reaction with ethanolamine. Biotin-MDM4 was captured on the chip by injection over the streptavidin or NeutrAvidin surface.
For peptide binding experiments, p53wt peptide was prepared as a 3-fold serial dilution in peptide binding buffer (20 mM Bis-Tris pH 6.5, 200 mM NaCl, 0.1 mg/mL bovine serum albumin, 0.005% Tween20, +/−1 mM TCEP). The peptide was injected in triplicate at each concentration at a flow rate of 75 µL/min. […] Equilibrium dissociation constants (K d) for peptide binding were determined by equilibrium affinity analysis with a 1∶1 binding model using Scrubber2.

Mdm2 = Mdm2 (Homo sapiens, UniProt Q00987); assay: fluorescence polarization p53 peptide exclusion assay, Mdm2; format: binding; conditions: ND = compound does not noticeably block interaction with p53 peptide
Text: (§1) the α,β-unsaturated amide towards Mdm2 and Mdmx as determined using fluorescence
(§2) polarization p53 peptide exclusion assay. Compound core according to J. Biol. Chem. 2010;
(§3) 285: 10786 is marked in blue.
(§4) Compound Chemical formula Compound code Mdm2 MdmX […]

MDMX [2] = target: T4, MDMX (Homo sapiens, UniProt O15151); set-up: method as in PMID 20080970; conditions: inhibition of the MDMX-p53 interaction; read-out: EC50, competition for wild type p53 peptide binding to MDMX; cited from earlier work
T4 sequence (O15151 1-490): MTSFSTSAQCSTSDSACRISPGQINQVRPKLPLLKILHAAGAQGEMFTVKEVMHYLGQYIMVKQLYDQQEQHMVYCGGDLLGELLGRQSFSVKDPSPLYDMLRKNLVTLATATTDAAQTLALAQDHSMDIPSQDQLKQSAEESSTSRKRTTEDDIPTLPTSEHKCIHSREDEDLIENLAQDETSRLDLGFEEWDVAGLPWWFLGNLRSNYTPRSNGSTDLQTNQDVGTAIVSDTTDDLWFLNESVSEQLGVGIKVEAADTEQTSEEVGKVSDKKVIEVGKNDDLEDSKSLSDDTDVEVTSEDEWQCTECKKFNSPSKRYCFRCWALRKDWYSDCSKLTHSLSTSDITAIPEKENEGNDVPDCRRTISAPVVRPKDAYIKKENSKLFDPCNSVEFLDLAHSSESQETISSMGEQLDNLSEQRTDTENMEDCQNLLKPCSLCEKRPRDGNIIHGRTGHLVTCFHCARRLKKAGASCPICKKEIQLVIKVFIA

MDMX [3] = target: T4, MDMX; assay: fluorescence polarization p53 peptide exclusion assay, Mdmx; format: binding; conditions: ND = compound does not noticeably block interaction with p53 peptide
Text: as §1, §2, §3, §4

[4] = target: T5, hMDMX (untagged aa 23 to 111 construct) (Homo sapiens, UniProt O15151); assay: mass spectrometry of covalent adducts, untagged hMDMX
T5 construct: hMDMX (untagged aa 23 to 111 construct); His-tag (cleaved yes); made in house; host or cells: E. coli BL21(DE3)
T5 sequence (O15151 23-111): T1 sequence (O15151 23-111)
Experimental: (§5) Samples were prepared in binding buffer (10 mM Tris, pH 8.0, 170 mM NaCl) with a 50 µl final volume. Samples were incubated at room temperature for 1.5 hours after which they were stored overnight at 4°C before analysis by mass spectrometry. Samples containing 1 µM hMDMX constructs were concentrated to 20 µM using 3000 MWCO centrifugal protein concentrators (Vivascience, Inc.) immediately prior to analysis. Prior to injection all samples were desalted using a reverse phase C8 Zip Tip (Millipore) and eluted in 50% acetonitrile, 2% formic acid. The samples were ionized by static nanospray using EconoTips (New Objective) on a Waters LCT Premier XE mass spectrometer using positive mode. The resultant charge envelope was deconvoluted using MaxEnt 1 algorithm of MassLynx V 4.0 sp 4 software. A mass error of 1Da for every 10,000 Da is permissible using this mass spectrometer.

C77A mutant of MDM2 = C77A mutant of MDM2 (Homo sapiens, UniProt Q00987, C77A); assay: covalent labelling of MDM2 C77A mutant; conditions: C77A mutation; Figure S6
retinoblastoma cells = tested on: retinoblastoma cells; set-up: method as in PMID 20080970; conditions: cited from earlier work
GST-hMDMX = target: T6, GST-hMDMX (Homo sapiens, UniProt O15151); assay: mass spectrometry of covalent adducts, GST-tagged hMDMX
T6 construct: made in house; host or cells: E. coli BL21(DE3)
T6 sequence (O15151 1-185): T2 sequence (O15151 1-185)
Experimental: as §5

hMDM2(18–125)C77V = target: T7, hMDM2(18–125)C77V (Homo sapiens, UniProt Q00987, C77V); assay: inhibition of p53 peptide binding to MDM2 cysteine mutant; conditions: hMDM2(18–125)C77V relative to MDM2; Figure S6
T7 construct: a mutant of MDM2 protein (hMDM2(18–125)C77V) lacking the cysteine

[5] = solubility assay (µSOL Evolution, pION); format: physicochemical; conditions: system solution buffer (SSB, pION), pH 7.4, aqueous buffer, kinetic from dmso stock
Experimental: Solubility assay was carried out on Biomek FX lab automation workstation (Beckman Coulter, Inc., Fullerton, CA) using µSOL Evolution software (pION Inc., Woburn, MA). The detailed method is described as following. 10 µL of 10 mM compound stock (in DMSO) was added to 190 µL 1-propanol to make a reference stock plate. 5 µL from this reference stock plate was mixed with 70 µL 1-propanol and 75 µL SSB (system solution buffer, pH adjusted to 7.4, pION Inc., Woburn, MA) to make the reference plate, and the UV spectrum (250 nm –500 nm) of the reference plate was read. 6 µL of 10 mM test compound stock was added to 594 µL SSB in a 96-well storage plate and mixed. The storage plate was sealed and incubated at room temperature for 18 hours. The suspension was then filtered through a 96-well filter plate (pION Inc., Woburn, MA). 75 µL filtrate was mixed with 75 µL 1-propanol to make the sample plate, and the UV spectrum of the sample plate was read. Calculation was carried out by µSOL Evolution software based on the AUC (area under curve) of UV spectrum of the sample plate and the reference plate. All compounds were tested in triplicates.

T7 sequence (Q00987 18-125 C77V): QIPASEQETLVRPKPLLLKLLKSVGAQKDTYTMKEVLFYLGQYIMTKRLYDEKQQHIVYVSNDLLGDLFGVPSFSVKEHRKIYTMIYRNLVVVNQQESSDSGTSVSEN
Chain of C77A mutant of MDM2 (Q00987 whole entry C77A): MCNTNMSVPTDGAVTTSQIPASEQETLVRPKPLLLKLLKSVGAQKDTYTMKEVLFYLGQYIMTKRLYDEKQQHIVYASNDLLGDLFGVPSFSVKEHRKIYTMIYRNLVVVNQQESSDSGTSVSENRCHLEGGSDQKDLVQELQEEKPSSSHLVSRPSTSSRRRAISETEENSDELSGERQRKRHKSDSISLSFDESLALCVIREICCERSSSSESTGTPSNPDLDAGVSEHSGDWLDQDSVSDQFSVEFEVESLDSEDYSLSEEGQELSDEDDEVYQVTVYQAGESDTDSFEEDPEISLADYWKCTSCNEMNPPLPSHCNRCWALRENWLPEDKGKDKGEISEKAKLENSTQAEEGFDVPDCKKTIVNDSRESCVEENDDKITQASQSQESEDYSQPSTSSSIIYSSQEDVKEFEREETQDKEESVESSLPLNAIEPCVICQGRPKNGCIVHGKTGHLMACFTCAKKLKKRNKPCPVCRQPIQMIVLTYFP
Chain of Mdm2 (Q00987 whole entry): as the sequence (Q00987 whole entry C77A) above, with A77C counted along it

With `O=C(O)c1cc(SSc2ccc([N+](=O)[O-])c(C(=O)O)c2)ccc1[N+](=O)[O-]` [DTNB, reference compound] the “effect on melting point of MDMX” value (MDMX (23–111); MDMX treated with Ellman's reagent, Figure S4) was “partially stabilized” and the “ability of treated MDMX to bind p53 peptide” value ([1]; MDMX treated with Ellman's reagent, Figure S3) was “unable to bind p53 peptide”.
In the case of `CCOc1cc(CC2C(=O)N(c3ccccc3)N=C2C)cc(Cl)c1OCC(=O)OC` (centres unmarked) [compound 2], the IC50 [1] is reported as over 100 µM and the “reduction of inhibitory potency by saturation of the ene-amide group” value ([1]; compound 2 relative to compound 1) is reported as “roughly 30 fold”.
In the case of `O=C(O)CCP(CCC(=O)O)CCC(=O)O` [TCEP], the “effect of reducing agent used alone on thermal stability of MDMX” value (MDMX (23–111)) is reported as “destabilized the protein at high concentrations”.
For `O[C@@H](CS)[C@@H](O)CS` [DTT], the “effect of reducing agent used alone on thermal stability of MDMX” value (MDMX (23–111)) was “no apparent effect”.
In the case of `CCOc1cc(/C=C2\C(=O)N(c3ccccc3)N=C2C)cc(Cl)c1OCC(=O)OC` [compound 1], the “time to return to baseline after the pulse (off rate)” value (hMDMX (aa 23–111); non-reducing conditions) is reported as about 5 min, the SPR binding (hMDMX (aa 23–111); reducing conditions (TCEP)) is reported as “no binding was observed” and the “stabilization of the protein's melting point” value (MDMX (23–111); addition of compound 1) is reported as 7 degree. It also gave an EC50 (MDMX (23–111); minimal time dependency (5 min vs 1 h), read-out: apparent EC50 of melting point stabilization) of about 1000 nM, a Ki (Mdm2) of 5.21 µM and an IC50 [1] of 3 µM. The “reduction of potency after reaction with glutathione in situ” value ([1]; Figure S5, efficacy not completely removed) was 10 fold, the EC50 (MDMX [2]) was about 5 µM and the Ki (MDMX [3]) was 8.07 µM. For the same compound, the “covalent adduct formation (mass spectrum)” value (“covalent adduct formation” for short) ([4]; 1 µM hMDMX, 5 µM compound) was “no alkylation”, the “covalent adduct formation” value ([4]; 20 µM hMDMX, 100 µM compound) was “partial alkylation” and the “ability to covalently label MDM2” value (C77A mutant of MDM2) was “abolishes”. The “p53 dependent cell death of retinoblastoma cells” value (retinoblastoma cells) was “caused p53 dependent cell death of retinoblastoma cells”, the “covalent adduct formation” value (GST-hMDMX; 1 µM GST-hMDMX, 5 µM compound) was “no alkylation events” and the “covalent adduct formation” value (GST-hMDMX; 20 µM GST-hMDMX, 100 µM compound) was “multiple alkylation events”. The “weaker potency on cysteine-lacking mutant than on MDM2” value (hMDM2(18–125)C77V) was 10 fold and the solubility at 18 h [5] was 12 µM (≈ 5.15 µg/mL).
